Compound | melting point
NS(=O)(=O)c1cc(Br)ccc1Br | 199 to 201 °C
O=C(O)/C=C/c1cc(Cl)c2c(c1)OCO2 | 259 to 261 °C
NC(=O)C1CCC1 | 151 to 153 °C
c1coc(-c2nc(C3CCCCC3)n[nH]2)c1 | 147 to 149 °C
Cc1cc(C)c(C)c(S(=O)(=O)N2CCC(C(=O)O)CC2)c1C | 107 to 109 °C
CC(=O)c1cc(Br)c(F)cc1O | 77 to 79 °C
COC(=O)c1csc(S(=O)(=O)Cl)c1 | 54 to 56 °C
CCOC(=O)Nc1c(F)cc(F)cc1C#C[Si](C)(C)C | 74 to 76 °C
N#Cc1cc(C(F)(F)F)ccc1S(=O)(=O)Cl | 87 to 89 °C
COC(=O)c1ccc(F)c(S(=O)(=O)Cl)c1 | 48 to 50 °C
CNC(=O)NC(=O)C(C)Cl (configuration not stated) | 118 to 120 °C
Cc1cccc(C(N)CC(=O)O)c1C (configuration not stated) | 211 to 213 °C
COC(=O)c1cc(C)nc(SC)n1 | 116 to 118 °C
CCOC(=O)c1cc(C(=O)O)cc([N+](=O)[O-])c1 | 178 to 180 °C
Cn1cc(C=O)c(-c2cccs2)n1 | 64 to 66 °C
Cc1[nH]c2ncnn2c(=O)c1CCO | 267 to 269 °C
CC(C)c1ccc(NCC(=O)N2CCCC2)cc1 | 127 to 129 °C
COC(=O)/C=C/c1cc(OC)c(OC)c(S(=O)(=O)Cl)c1 | 160 to 162 °C
S=C1CCCCN1 | 92 to 94 °C
NS(=O)(=O)c1ccc(O)c(C(=O)O)c1 | 233 to 235 °C
O=C(O)CC(Br)C(=O)c1ccc(Cl)cc1 (configuration not stated) | 113 to 117 °C
O=C(O)CN1C(=O)c2cc(Cl)c(Cl)cc2C1=O | 309 to 311 °C

Compound | melting point
CC(C)(C)c1noc(C(N2CCOCC2)N2CCOCC2)n1 | 80 to 82 °C
O=C(O)CCn1cnc2cc(F)c(F)cc21 | 157 to 159 °C
CCOC(=O)c1c(N)sc(C)c1CC(C)CC (configuration not stated) | 77 to 79 °C
CC(=O)Oc1cc(C)ccc1C(=O)O | 139 to 141 °C
CCNc1ccc(C#N)c(Cl)c1 | 69 to 71 °C
N#CCCC(=O)c1cccnc1 | 71 to 73 °C
N#Cc1ccc(N=C=S)cc1Cl | 75 to 77 °C
CC(=O)NCc1ccc(S(=O)(=O)Cl)s1 | 80 to 82 °C
O=[N+]([O-])c1ccccc1S(=O)(=O)N1CCNCC1 | 147 to 149 °C
O=C(O)c1cc(Br)cc(Cl)c1O | 207 to 209 °C
CCCC(=O)Nc1cccc(N)c1C | 106 to 108 °C
CCOC(=O)C(=O)CC(=O)c1ccc2c(c1)OCO2 | 61 to 63 °C
CS(=O)(=O)c1cc(Br)ccc1[N+](=O)[O-] | 152 to 154 °C
COc1cc(C=O)ccc1S | 43 to 45 °C
Cc1noc(C)c1C(C)CC(=O)O (configuration not stated) | 95 to 97 °C
O=[N+]([O-])c1ccc2c(S(=O)(=O)Cl)c[nH]c2c1 | 173 to 175 °C
O=C(O)c1cc(S(=O)(=O)Cl)c(Br)cc1Br | 185 to 187 °C
COc1ccc(S(=O)(=O)N2CCCCCC2)cc1NC(=O)CCl | 105 to 107 °C
O=C(O)c1cccc(S(=O)(=O)NCc2cccnc2)c1 | 231 to 233 °C
CC(C)(C)c1ccc(S(=O)(=O)N2CCNCC2)cc1 | 126 to 128 °C
CCC(CC)C(O)CN (configuration not stated) | 39 to 41 °C
Cc1cc(C)c2ncc(C(=O)O)c(O)c2c1 | 282 to 284 °C

Compound | melting point
NC1(c2nc(C(=O)O)c[nH]2)CCC1 | 273 to 275 °C
COc1ccc(S(=O)(=O)N2CCN(C)CC2)cc1N | 107 to 109 °C
O=C(O)c1ccccc1SCc1cccs1 | 178 to 180 °C
O=C(O)CCNC(=O)c1ccc(F)cc1F | 118 to 120 °C
Cc1nn(C)c(=O)c(C(=O)N2CSCC2C(=O)O)c1C (configuration not stated) | 209 to 211 °C
CN(C)CCn1c(S)nc2ccsc2c1=O | 192 to 194 °C
CCOC(=O)CNC(=O)CC | 50 to 52 °C
Cc1ccc(Cl)cc1NC(=O)CC#N | 190 to 192 °C
COc1c(Cl)cc(Cl)cc1C=O | 85 to 87 °C
Clc1cccc2c(CBr)csc12 | 84 to 86 °C
O=C(O)c1ccc(S(=O)(=O)Nc2ccccc2Cl)cc1 | 111 to 113 °C
O=C(O)c1csc(I)c1 | 136 to 138 °C
CCOC(=O)c1cc(N)cc(S(C)(=O)=O)c1 | 190 to 192 °C
COc1cc(C#N)ccc1CBr | 89 to 91 °C
NS(=O)(=O)c1ccc2c(c1)CCCC2 | 135 to 137 °C
CS(=O)(=O)CCCBr | 35 to 37 °C
NS(=O)(=O)N1CCCCC1 | 121 to 123 °C
O=C(O)Cn1cc(C(F)(F)F)ccc1=O | 218 to 220 °C
Cc1ncc(Cl)c(C(=O)O)n1 | 130 to 132 °C
COc1cc(CCl)ccc1SC | 78 to 80 °C
O=C(O)c1cccc(S(=O)(=O)NCc2ccccc2)c1 | 225 to 227 °C
CC(C)(C)OC(=O)N1CCc2ccc(O)cc2C1 | 134 to 136 °C

Compound | melting point
CCCNc1ccc(S(N)(=O)=O)cc1N | 104 to 106 °C
c1nc(C2CCCCN2)n[nH]1 (configuration not stated) | 104 to 106 °C
O=C(O)CNS(=O)(=O)c1ccc(F)c(F)c1F | 175 to 177 °C
CC(C)(C)c1noc(N)n1 | 192 to 194 °C
CC(C)(C)OC(=O)Nc1cccc(Cl)n1 | 74 to 76 °C
CC1Cc2ccc(Br)cc2C1=O (configuration not stated) | 69 to 71 °C
Cn1cc(C=O)c(=O)n(C)c1=O | 121 to 123 °C
Cc1oc(C(=O)O)cc1S(=O)(=O)N(C)C | 151 to 153 °C
CC(=O)CC(=O)Nc1ccc(F)c(F)c1 | 92 to 94 °C
COc1cc(CN)cc(OC)c1 | 35 to 37 °C
CNc1nc(CC(C)=O)ns1 | 298 to 300 °C
CC(C)(C)NS(=O)(=O)c1cccc(C(=O)O)c1 | 145 to 147 °C
O=C(NC1CCNCC1)c1ccccc1 | 138 to 140 °C
CCCCNc1ccc(N2CCOCC2)cc1 | 59 to 61 °C
Cc1n[nH]c(C(=O)O)c1Br | 271 to 273 °C
N#CC1(CS(N)(=O)=O)CC1 | 109 to 111 °C
Nc1cnn(CC(=O)NC2CCCC2)c1 | 108 to 110 °C
Cc1[nH]c2ccc(Cl)cc2c1C=O | 248 to 250 °C
CCCc1nnc(S)n1CC(=O)O | 226 to 228 °C
CS(=O)(=O)OC1CCOC2(CCOCC2)C1 (configuration not stated) | 110 to 112 °C

Continued, values first:

melting point | Compound
223 to 225 °C | Nc1nncc(-c2ccc(OC(F)F)cc2)n1
186 to 188 °C | O=C(O)CSc1ncnc2scc(-c3ccccc3)c12
224 to 226 °C | O=C(O)c1cc(-c2ccc(OC(F)F)cc2)nc2ccccc12
57 to 59 °C | Cc1cnn(-c2ccc(N)cc2F)c1
77 to 81 °C | COc1cc(C=O)ccc1OCc1ccc(F)cc1
273 to 275 °C | Cc1ccc2[nH]nc(C(=O)O)c2c1
35 to 41 °C | Cc1nn(-c2ccccc2)c(Cl)c1CCl
201 to 203 °C | COc1ccc2cc[nH]c(=O)c2c1
135 to 137 °C | NNC(=O)c1ccc(COc2cccc3cccnc23)cc1
74 to 76 °C | Cc1nc(-c2ccc(F)cc2)cs1
108 to 110 °C | Cc1ccc(S(=O)(=O)OCc2nc3ccccc3s2)cc1
103 to 105 °C | COc1ccc(N2CCC2=O)cc1
189 to 191 °C | Nc1cccc(N2C(=O)c3ccccc3C2=O)c1
112 to 114 °C | ClCc1coc(-c2ccc(Br)cc2)n1
179 to 181 °C | Cn1cnnc1SCc1ccc(C(=O)O)o1
119 to 121 °C | COc1ccccc1-c1cc(N)n(-c2ccccc2)n1
99 to 101 °C | O=C(O)c1cnn(-c2ccc(Cl)nn2)c1C(F)(F)F
181 to 183 °C | N#Cc1ccccc1COc1cccc(C(=O)O)c1
104 to 106 °C | CN(C)c1ccc(NCc2ccc3ccccc3n2)cc1

melting point | Compound
126 to 128 °C | Cc1nc(-c2cccc(O)c2)no1
195 to 197 °C | CC(=O)N(c1nc(/C=C\C(=O)O)cs1)c1ccccc1F
143 to 145 °C | N#Cc1ccc(-c2nnc(CCl)o2)cc1
127 to 129 °C | COc1ccccc1CC(N)=O
225 to 227 °C | Nc1nc2ccc(S(=O)(=O)N3CCCC3)cc2s1
253 to 255 °C | O=C(O)c1ccc(-c2ccc(Cl)c(Cl)c2)s1
135 to 137 °C | Brc1ccccc1Cc1nn[nH]n1
113 to 115 °C | CSc1nnnn1-c1cccc(N)c1
152 to 154 °C | O=C(Nc1ccc(S(=O)(=O)Cl)cc1)C(F)(F)F
239 to 241 °C | CS(=O)(=O)c1ccc(N)c(C(=O)O)c1
211 to 213 °C | CCn1c(S)nnc1-c1ccc(Cl)cc1
264 to 266 °C | Nc1ncnc2ccccc12
276 to 278 °C | N#Cc1ccc(CNc2ccc3[nH]c(=O)[nH]c3c2)cc1
179 to 181 °C | NC(=O)c1ccc(Cl)cc1N
87 to 89 °C | NCCS(=O)(=O)c1ccc(Br)cc1
199 to 201 °C | Cc1cc(F)ccc1S(=O)(=O)Nc1ccc(C(=O)O)cc1
246 to 248 °C | O=C(Nc1nnc(-c2ccccn2)s1)OCC(F)(F)F
95 to 101 °C | CCCCc1ccc2nc(N)sc2c1
133 to 135 °C | CN(C)c1ccc(C(=N)N)c(F)c1

melting point | Compound
209 to 211 °C | Cc1sc(N)nc1-c1ccc2c(c1)CCCO2
216 to 218 °C | CC(=O)N(c1ccc(F)cc1)c1nc(C=O)cs1
229 to 231 °C | Nc1nc2cc(Cl)ccc2n1CCCn1ccnc1
169 to 171 °C | Cc1ccc(-c2csc(NC(=O)CCl)n2)cc1
102 to 104 °C | COc1ccc(NCc2ccc(N(C)C)cc2)cc1
167 to 169 °C | CC1(c2ccc(F)cc2)NC(=O)N(CC(=O)O)C1=O (configuration not stated)
216 to 218 °C | Cc1cccc2cc(C(=O)O)oc12
238 to 240 °C | CS(=O)(=O)c1ccc(C(=O)Nc2c(Cl)cc(N)cc2Cl)cc1
< 17 °C | COc1ccc(Cn2nccc2N)cc1OC
115 to 117 °C | COC(=O)Nc1ccc(O)cc1
203 to 205 °C | Nc1ccc(S(=O)(=O)Nc2ccccc2Cl)cc1N
169 to 171 °C | O=C(O)c1ccc(-c2cccs2)o1
135 to 137 °C | Clc1ccc(-c2nnc(Br)s2)cc1
80 to 82 °C | OCCNc1ccc(Br)cc1
139 to 141 °C | COc1ccc(Br)c(C(=O)O)c1N
284 to 286 °C | NC(=O)Nc1cccc2ccccc12
119 to 121 °C | Cc1ccnc(Oc2ccc(N)cc2)n1
183 to 185 °C | Cc1nccn1-c1ccc(C(F)(F)F)cc1N

Reference: a melting point compilation (Tetko et al.)
